# Test results reported in US20140066362A1, “METHOD FOR TREATING INFECTIONS BY TARGETING MICROBIAL H2S-PRODUCING ENZYMES” (NEW YORK UNIVERSITY, priority 2011, published 2014).
# Like-named read-outs stand apart in the source and are kept apart here.
# Test system: E. coli ΔsseA (3MST-deficient) strain
# Format: cell-based
# [1] = Table 1, relative values of growth inhibition (negative numbers), ΔsseA vs wt E. coli
Compound,ΔsseA inhibition of growth [1],ΔsseA inhibition of growth
"O=[N+]([O-])c1ccc(Cl)c([N+](=O)[O-])c1 [1-Chloro-2,4-dinitrobenzene]",−221,
"CC(C)c1nc2nc(N)nc(N)c2nc1C(C)C [2,4-Diamino-6,7-diisopropylpteridine]",−429,
"O=[N+]([O-])c1ccc(O)c([N+](=O)[O-])c1 [2,4-Dinitrophenol]",−296,
Nc1c2ccccc2nc2ccccc12 [9-Aminoacridine],−142,
"O=P(O)(O)O [200 mM Sodium Phosphate pH 7, Sodium Phosphate]",,−497
CCCCC(CC)CNC(=N)NC(=N)NCCCCCCNC(=N)NC(=N)NCC(CC)CCCC (stereo not shown) [Alexidine],−216,
CN(C)CCC=C1c2ccccc2CCc2ccccc21 [Amitriptyline],−422,
CN[C@@H]1[C@@H](O[C@H]2O[C@H](CO)[C@@H](N)[C@H](O)[C@H]2O)OC2C[C@@H](N)[C@@H](O[C@H]3[C@H](O)[C@@H](O)[C@H](N)C[C@@H]3N)OC2[C@@H]1O (stereo partly shown) [Apramycin],−179,
Cn1cnc([N+](=O)[O-])c1Sc1ncnc2nc[nH]c12 [Azathioprine],−341,
NC(CO)C(=O)NNCc1ccc(O)c(O)c1O (stereo not shown) [Benserazide],−336,
CN(CC[C@H](N)CC(=O)N[C@H]1C=C[C@H](n2ccc(N)nc2=O)O[C@@H]1C(=O)O)C(=N)N [Blasticidin S],−185,
N#CC(C#N)=NNc1cccc(Cl)c1 [CCCP],−422,
Cn1c(=O)c2c(ncn2C)n(C)c1=O [Caffeine],−173,
O=C1C2CC=CCC2C(=O)N1SC(Cl)(Cl)Cl (stereo not shown) [Captan],−357,
CC1(C)S[C@@H]2[C@H](NC(=O)C(C(=O)O)c3ccccc3)C(=O)N2[C@H]1C(=O)O (stereo partly shown) [Carbenicillin],−164,
CCN1CCN(C(=O)N[C@@H](C(=O)N[C@@H]2C(=O)N3C(C(=O)O)=C(CSc4nnnn4C)CS[C@H]23)c2ccc(O)cc2)C(=O)C1=O [Cefoperazone],−159,
NC(=O)c1cc[n+](CC2=C(C(=O)O)N3C(=O)[C@@H](NC(=O)[C@@H](c4ccccc4)S(=O)(=O)[O-])[C@H]3SC2)cc1 [Cefsulodin],−201,
CC(=O)OCC1=C(C(=O)O)N2C(=O)[C@@H](NC(=O)Cc3cccs3)[C@H]2SC1 [Cephalothin],−160,
O=C(O)CCCc1ccc(N(CCCl)CCCl)cc1 [Chlorambucil],−177,
CN(C)CCCN1c2ccccc2Sc2ccc(Cl)cc21 [Chlorpromazine],−251,
O=C(O)C=Cc1ccccc1 [Cinnamic acid],−204,
Cc1onc(-c2ccccc2Cl)c1C(=O)N[C@@H]1C(=O)N2[C@@H]1SC(C)(C)[C@@H]2C(=O)O [Cloxacillin],−182,
O=c1ccc2ccccc2o1 [Coumarin],−243,
CN(C)c1ccc(C(=C2C=CC(=[N+](C)C)C=C2)c2ccc(N(C)C)cc2)cc1 [Crystal Violet],−576,

Compound,ΔsseA inhibition of growth [1],ΔsseA inhibition of growth
Nc1ccn([C@@H]2O[C@H](CO)[C@@H](O)[C@@H]2O)c(=O)n1 [Cytosine arabinoside],−281,
N[C@H](CO)C(=O)O [D-Serine],−398,
CCN(CC)C(=S)SSC(=S)N(CC)CC [Disulfiram],−246,
CCCCCCCCCCCC[N+](C)(C)C.[Br-] [Dodecyltrimethyl ammonium bromide],−225,
CCCCCCCCCCCC[N+](C)(C)CCOc1ccccc1 [Domiphen bromide],−250,
CC[C@H]1OC(=O)[C@H](C)[C@@H](O[C@H]2C[C@@](C)(OC)[C@@H](O)[C@H](C)O2)[C@H](C)[C@@H](O[C@@H]2O[C@H](C)C[C@H](N(C)C)[C@H]2O)[C@](C)(O)C[C@@H](C)C(=O)[C@H](C)[C@@H](O)[C@]1(C)O [Erythromycin],−468,
N#CC(C#N)=NNc1ccc(OC(F)(F)F)cc1 [FCCP],,−460
O=C1OC(CN2CCOCC2)CN1/N=C/c1ccc([N+](=O)[O-])o1 (stereo not shown) [Furaltadone],−162,
CC(=O)O[C@H]1C[C@@]2(C)[C@@H](C[C@@H](O)[C@H]3[C@@]4(C)CC[C@@H](O)[C@@H](C)[C@@H]4CC[C@@]32C)/C1=C(\CCC=C(C)C)C(=O)O [Fusidic acid],−271,
NO [Hydroxylamine],−150,
O=[N+]([O-])c1ccc(-n2nc(-c3ccccc3)n[n+]2-c2ccc(I)cc2)cc1.[Cl-] [Iodonitro tetrazolium violet],−215,
CO[C@@H]1[C@@H](O[C@@H]2O[C@H](C)[C@@H](O[C@H]3C[C@@](C)(O)[C@@H](OC(=O)CC(C)C)[C@H](C)O3)[C@H](N(C)C)[C@H]2O)[C@@H](CC=O)C[C@@H](C)[C@@H](O)/C=C/C=C/C[C@@H](C)OC(=O)C[C@H]1OC(C)=O [Josamycin],−294,
CC(C(=O)O)c1cccc(C(=O)c2ccccc2)c1 (stereo not shown) [Ketoprofen],−468,
O=C1C=C(O)C(=O)c2ccccc21 [Lawsone],−330,
CCN(CC)CC(=O)Nc1c(C)cccc1C [Lidocaine],−269,
CCCCCCCC[N+](C)(CCCCCCCC)CCCCCCCC.[Cl-] [Methyltrioctylammonium chloride],−326,
CO[C@@]1(NC(=O)C(C(=O)O)c2ccc(O)cc2)C(=O)N2C(C(=O)O)=C(CSc3nnnn3C)CO[C@@H]21 (stereo partly shown) [Moxalactam],−171,
CCOc1ccc2ccccc2c1C(=O)N[C@@H]1C(=O)N2[C@@H]1SC(C)(C)[C@@H]2C(=O)O [Nafcillin],−227,
CCn1cc(C(=O)O)c(=O)c2ccc(C)nc21 [Nalidixic acid],−183,
CCn1cc(C(=O)O)c(=O)c2cc(F)c(N3CCNCC3)cc21 [Norfloxacin],−212,
CO[C@@H]1[C@@H](OC(N)=O)[C@@H](O)[C@H](Oc2ccc3c(O)c(NC(=O)c4ccc(O)c(CC=C(C)C)c4)c(=O)oc3c2C)OC1(C)C [Novobiocin],−265,
CO[C@H]1C[C@H](O[C@H]2[C@H](C)[C@@H](O[C@@H]3O[C@H](C)C[C@H](N(C)C)[C@H]3O)[C@@H](C)C[C@@]3(CO3)C(=O)[C@H](C)[C@@H](O)[C@@H](C)[C@@H](C)OC(=O)[C@@H]2C)O[C@@H](C)[C@@H]1O [Oleandomycin],−498,
Cc1ncc([N+](=O)[O-])n1CC(O)CCl (stereo not shown) [Ornidazole],−203,
Cc1onc(-c2ccccc2)c1C(=O)N[C@@H]1C(=O)N2[C@@H]1SC(C)(C)[C@@H]2C(=O)O [Oxacillin],−346,

Compound,ΔsseA inhibition of growth [1],ΔsseA inhibition of growth
CCn1cc(C(=O)O)c(=O)c2cc3c(cc21)OCO3 [Oxolinic acid],−117,
CC1(C)S[C@@H]2[C@H](NC(=O)Cc3ccccc3)C(=O)N2[C@H]1C(=O)O [Penicillin G],−186,
Oc1c(Cl)c(Cl)c(Cl)c(Cl)c1Cl [Pentachlorophenol],−287,
CC(Oc1ccccc1)C(=O)N[C@@H]1C(=O)N2[C@@H]1SC(C)(C)[C@@H]2C(=O)O (stereo partly shown) [Phenethicillin],−216,
"O=S(=O)(F)Cc1ccccc1 [Phenyl-methylsulfonyl-fluoride (PMSF), Phenyl-methylsulfonyl-fluoride]",−194,
OC(CCN1CCCCC1)(c1ccccc1)c1ccccc1 [Pridinol],−206,
Nc1ccc2cc3ccc(N)cc3nc2c1 [Proflavine],−93,
CC(CN1c2ccccc2Sc2ccccc21)N(C)C (stereo not shown) [Promethazine],−262,
CC(C)NCC(O)COc1cccc2ccccc12 (stereo not shown) [Propranolol],−263,
CO[C@H]1/C=C/O[C@@]2(C)Oc3c(C)c([O-])c4c(O)c(cc(O)c4c3C2=O)NC(=O)/C(C)=C\C=C\[C@H](C)[C@H](O)[C@@H](C)[C@@H](O)[C@@H](C)[C@H](OC(C)=O)[C@@H]1C.[Na+] [Rifamycin SV],−352,
N.N.N.N.N.N.N.N.N.N.N.N.N.N.[Cl-].[Cl-].[Cl-].[Cl-].[Cl-].[Cl-].[O-2].[O-2].[Ru+3].[Ru+3].[Ru+4] [Ruthenium red],−268,
CCCCCCCC(=O)[O-].[Na+] [Sodium caprylate],−346,
N#CO [Sodium cyanate],−238,
[H]/N=C(/N)N[C@H]1[C@H](O)[C@@H](O)[C@H](O[C@@H]2O[C@@H](C)[C@](O)(C=O)[C@H]2O[C@@H]2O[C@@H](CO)[C@H](O)[C@@H](O)[C@@H]2NC)[C@@H](N/C(N)=N\[H])[C@@H]1O [Streptomycin],−421,
c1ccc(-c2nn(-c3ccccc3)[n+](-c3cccc4ccccc34)n2)cc1 [Tetrazolium violet],−293,
CSc1ccc2c(c1)N(CCC1CCCCN1C)c1ccccc1S2 (stereo not shown) [Thioridazine],−313,
CCS(=O)(=O)CCn1c([N+](=O)[O-])cnc1C [Tinidazole],−223,
CN1CCN(CCCN2c3ccccc3Sc3ccc(C(F)(F)F)cc32)CC1 [Trifluoperazine],−372,
COc1cc(Cc2cnc(N)nc2N)cc(OC)c1OC [Trimethoprim],−212,
CO[C@H]1C[C@H](O[C@H]2[C@H](C)[C@@H](O[C@@H]3O[C@H](C)C[C@H](N(C)C)[C@H]3OC(C)=O)[C@@H](C)C[C@@]3(CO3)C(=O)[C@H](C)[C@@H](OC(C)=O)[C@@H](C)[C@@H](C)OC(=O)[C@@H]2C)O[C@@H](C)[C@@H]1OC(C)=O [Troleandomycin],−203,
CC[C@H]1OC(=O)C[C@@H](O)[C@H](C)[C@@H](O[C@@H]2O[C@H](C)[C@@H](O[C@H]3C[C@@](C)(O)[C@@H](O)[C@H](C)O3)[C@H](N(C)C)[C@H]2O)[C@@H](CC=O)C[C@@H](C)C(=O)/C=C/C(C)=C/[C@@H]1CO[C@@H]1O[C@H](C)[C@@H](O)[C@@H](OC)[C@H]1OC [Tylosin],−520,
Acriflavine,−295,
